The DC50 is the midpoint of the concentration-degradation curve.

Some results are limits rather than exact numbers.

The target in one assay is T1, CK1α (Homo sapiens, UniProt P48729+Q96SW2).
T1 construct: CSNK1A1-HiBit KI HEK293(LgBit) Cells; host or cells: HEK293(LgBit) knock-in cells
The assay is described as follows: HiBiT degradation assay, CK1α, Procedure A. Type of assay: cell-based. In a few lines:
(§1)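 Cells in DMEM + 10% FBS were treated with compound in a ten-point dose response from 10 μM to 0.005 μM (0.1% DMSO) for six hours at 37° C. Lysis with Nano-Glo HiBiT detection reagent followed, with luminescence read. DC50 and Ymin came from a 4-parameter fit.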
In general terms: HiBiT is a short tag that completes a luciferase, so light tracks the accessible tagged protein.

The next assay concerns the target GSPT1 (Homo sapiens, UniProt P15170+Q96SW2). Kind of assay: HiBiT degradation assay, GSPT1, Procedure A. The assay is classed as cell-based. On the set-up: HiBit-GSPT1 KI HEK293(LgBit) Cells; host or cells: HEK293(LgBit) knock-in cells. A digest of the protocol: as §1

T1 sequence (P48729 whole entry): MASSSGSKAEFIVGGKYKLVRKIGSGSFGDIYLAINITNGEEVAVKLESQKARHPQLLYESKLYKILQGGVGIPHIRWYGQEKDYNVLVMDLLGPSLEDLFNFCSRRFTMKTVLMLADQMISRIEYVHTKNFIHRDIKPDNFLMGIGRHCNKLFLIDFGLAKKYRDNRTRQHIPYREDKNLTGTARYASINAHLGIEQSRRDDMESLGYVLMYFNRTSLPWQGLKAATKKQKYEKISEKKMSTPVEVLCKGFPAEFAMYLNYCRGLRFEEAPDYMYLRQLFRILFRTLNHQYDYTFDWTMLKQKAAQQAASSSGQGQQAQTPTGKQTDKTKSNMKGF
T1 sequence (Q96SW2 whole entry): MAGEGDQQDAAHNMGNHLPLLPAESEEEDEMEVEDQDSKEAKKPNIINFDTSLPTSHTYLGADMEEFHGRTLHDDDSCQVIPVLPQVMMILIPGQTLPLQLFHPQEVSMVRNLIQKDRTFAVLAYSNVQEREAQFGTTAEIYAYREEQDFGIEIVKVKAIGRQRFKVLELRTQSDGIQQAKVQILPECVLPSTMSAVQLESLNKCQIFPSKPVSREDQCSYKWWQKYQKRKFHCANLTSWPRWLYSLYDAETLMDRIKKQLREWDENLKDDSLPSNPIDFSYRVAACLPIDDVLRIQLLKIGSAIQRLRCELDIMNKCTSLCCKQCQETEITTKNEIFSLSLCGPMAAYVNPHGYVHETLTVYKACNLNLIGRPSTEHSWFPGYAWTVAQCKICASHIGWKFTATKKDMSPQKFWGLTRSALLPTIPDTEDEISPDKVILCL
T1 sequence (Q16531 whole entry partner): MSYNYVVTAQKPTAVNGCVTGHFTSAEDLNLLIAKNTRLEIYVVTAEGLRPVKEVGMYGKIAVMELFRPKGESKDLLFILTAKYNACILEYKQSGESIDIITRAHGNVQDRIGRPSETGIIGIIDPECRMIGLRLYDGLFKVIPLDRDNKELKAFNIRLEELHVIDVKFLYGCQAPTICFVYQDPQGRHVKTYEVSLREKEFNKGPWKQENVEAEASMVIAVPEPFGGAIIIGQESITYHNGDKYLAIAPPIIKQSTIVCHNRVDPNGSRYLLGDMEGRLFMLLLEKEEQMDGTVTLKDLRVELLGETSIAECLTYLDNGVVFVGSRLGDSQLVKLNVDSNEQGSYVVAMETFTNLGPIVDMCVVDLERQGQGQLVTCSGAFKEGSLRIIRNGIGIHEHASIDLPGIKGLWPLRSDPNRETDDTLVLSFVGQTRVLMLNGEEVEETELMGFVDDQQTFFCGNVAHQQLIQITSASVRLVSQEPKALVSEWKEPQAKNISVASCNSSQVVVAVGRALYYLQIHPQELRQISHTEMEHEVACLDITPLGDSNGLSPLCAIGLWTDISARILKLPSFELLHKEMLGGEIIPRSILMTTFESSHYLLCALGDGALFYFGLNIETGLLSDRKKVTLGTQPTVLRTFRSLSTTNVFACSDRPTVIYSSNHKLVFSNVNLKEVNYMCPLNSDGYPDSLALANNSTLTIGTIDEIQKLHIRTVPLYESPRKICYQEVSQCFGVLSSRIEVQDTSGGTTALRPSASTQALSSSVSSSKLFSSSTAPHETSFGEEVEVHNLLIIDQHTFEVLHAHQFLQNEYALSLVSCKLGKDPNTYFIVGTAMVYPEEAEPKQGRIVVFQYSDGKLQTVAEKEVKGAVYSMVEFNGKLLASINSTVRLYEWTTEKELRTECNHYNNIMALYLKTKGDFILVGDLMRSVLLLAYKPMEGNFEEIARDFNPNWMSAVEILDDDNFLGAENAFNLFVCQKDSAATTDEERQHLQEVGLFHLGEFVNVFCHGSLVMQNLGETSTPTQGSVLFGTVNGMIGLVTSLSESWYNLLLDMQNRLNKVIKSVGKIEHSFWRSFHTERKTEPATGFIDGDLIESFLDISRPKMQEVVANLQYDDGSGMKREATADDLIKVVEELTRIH
GSPT1, sequence (P15170 whole entry): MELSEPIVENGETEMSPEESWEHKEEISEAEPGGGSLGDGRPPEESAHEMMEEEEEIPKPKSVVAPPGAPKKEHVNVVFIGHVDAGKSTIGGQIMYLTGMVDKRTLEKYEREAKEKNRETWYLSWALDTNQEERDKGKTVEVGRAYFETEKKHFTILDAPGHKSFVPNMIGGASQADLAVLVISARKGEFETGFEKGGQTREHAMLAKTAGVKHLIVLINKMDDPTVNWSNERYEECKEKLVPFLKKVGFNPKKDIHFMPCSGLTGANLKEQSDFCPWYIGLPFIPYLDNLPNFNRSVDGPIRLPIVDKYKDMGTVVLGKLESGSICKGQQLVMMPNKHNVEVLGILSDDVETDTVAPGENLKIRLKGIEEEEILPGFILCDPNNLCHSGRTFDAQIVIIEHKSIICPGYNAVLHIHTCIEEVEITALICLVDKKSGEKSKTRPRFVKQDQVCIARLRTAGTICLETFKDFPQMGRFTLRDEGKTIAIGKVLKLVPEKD
GSPT1, sequence (Q96SW2 whole entry): as the sequence (Q96SW2 whole entry) above
GSPT1, sequence (Q16531 whole entry partner): as the sequence (Q16531 whole entry partner) above

For the molecule `O=C1CCC(N2Cc3cc(-c4ccnn4-c4ccccc4)ccc3C2=O)C(=O)N1` (centres unmarked) [Example 6, 3-(1-oxo-5-(1-phenyl-1H-pyrazol-5-yl)isoindolin-2-yl)piperidine-2,6-dione], on CK1α (six hours incubation), the “CK1α Ymin” value was “E (E = >25-75% remaining)” and the DC50 is not below 25 nM. In addition, at GSPT1 (six hours incubation), the DC50 is not below 25 nM and the “GSPT1 Ymin” value is given as “F (F = >75-100% remaining)”.
As to `COc1ccncc1-c1c(-c2ccc3c(c2)CN(C2CCC(=O)NC2=O)C3=O)ncn1C` (centres unmarked) [Example 524], on CK1α (six hours), the “CK1α Ymin” value is reported as “E (E = >25-75% remaining)” and the DC50 is not below 25 nM. Further, at GSPT1 (six hours), the DC50 was not below 25 nM and the “GSPT1 Ymin” value was “F (F = >75-100% remaining)”.
As for `Cc1ccc(-c2c(-c3ccc4c(c3)CN(C3CCC(=O)NC3=O)C4=O)ncn2C)c(C#N)c1` (centres unmarked) [Example 244], on CK1α (six hours incubation), the “CK1α Ymin” value is reported as “D (D = >10- 25% remaining)” and the DC50 was less than 25 nM. Besides, on GSPT1 (six hours incubation), the DC50 was not below 25 nM and the “GSPT1 Ymin” value is “F (F = >75-100% remaining)”.
In the same order, the values of `Cc1cncc(-c2c(-c3ccc4c(c3)CN(C3CCC(=O)NC3=O)C4=O)cnn2C)c1` (centres unmarked) [Example 369] are “F (F = >75-100% remaining)”, not below 25 nM, not below 25 nM and “F (F = >75-100% remaining)”.
On the same counts, the results for `COc1ccc(-c2nn(C(F)F)cc2-c2ccc3c(c2)CN(C2CCC(=O)NC2=O)C3=O)cc1F` (centres unmarked) [Example 341, 3-(5-(1-(difluoromethyl)-3-(3-fluoro-4-methoxyphenyl)-1H-pyrazol-4-yl)-1-oxoisoindolin-2-yl)piperidine-2,6-dione] are “E (E = >25-75% remaining)”, less than 25 nM, not below 25 nM and “F (F = >75-100% remaining)”.
In the same order, the values of `Cn1cnc(-c2ccc3c(c2)CN(C2CCC(=O)NC2=O)C3=O)c1-c1cccc(-c2ccccc2)c1` (centres unmarked) [Example 291] are “E (E = >25-75% remaining)”, less than 25 nM, not below 25 nM and “F (F = >75-100% remaining)”.
For `Cc1ccc(Cl)c(-c2c(-c3ccc4c(c3)CN(C3CCC(=O)NC3=O)C4=O)ncn2C)c1` (centres unmarked) [Example 199], at CK1α (six hours incubation), the “CK1α Ymin” value is given as “D (D = >10- 25% remaining)” and the DC50 was less than 25 nM. On GSPT1 (six hours incubation), the DC50 was less than 25 nM and the “GSPT1 Ymin” value is reported as “F (F = >75-100% remaining)”.
On to `Cn1cc(-c2ccc3c(c2)CN(C2CCC(=O)NC2=O)C3=O)nc1-c1cccc(OC2CC2)c1` (centres unmarked) [Example 580], for which, on CK1α (six hours), the “CK1α Ymin” value is on record as “C (C = 0-10% remaining)” and the DC50 was less than 25 nM. On GSPT1 (six hours), the DC50 was not below 25 nM and the “GSPT1 Ymin” value was “F (F = >75-100% remaining)”.
In the same order, the values of `Cn1ncc(-c2ccc3c(c2)CN(C2CCC(=O)NC2=O)C3=O)c1-c1cccc(CCCCCCc2ccccc2)c1` (centres unmarked) [Example 409] are “E (E = >25-75% remaining)”, not below 25 nM, not below 25 nM and “F (F = >75-100% remaining)”.
On to `Cn1cnc(-c2ccc3c(c2)CN(C2CCC(=O)NC2=O)C3=O)c1-c1cnn(-c2ccccc2)c1` (centres unmarked) [Example 332], for which, at CK1α (six hours incubation), the “CK1α Ymin” value is listed as “D (D = >10- 25% remaining)” and the DC50 was less than 25 nM. For the same molecule, at GSPT1 (six hours incubation), the DC50 was not below 25 nM and the “GSPT1 Ymin” value is “F (F = >75-100% remaining)”.
For `Cn1cnc(-c2ccc3c(c2)CN(C2CCC(=O)NC2=O)C3=O)c1-c1ccc(C#N)cc1F` (centres unmarked) [Example 187], on CK1α (six hours incubation), the “CK1α Ymin” value is on record as “D (D = >10- 25% remaining)” and the DC50 is less than 25 nM. For the same molecule, at GSPT1 (six hours incubation), the DC50 was not below 25 nM and the “GSPT1 Ymin” value is “F (F = >75-100% remaining)”.
As to `Cn1cnc(-c2ccc3c(c2)CN(C2CCC(=O)NC2=O)C3=O)c1-c1ccc(-n2cccn2)cc1` (centres unmarked) [Example 444], on CK1α (six hours), the “CK1α Ymin” value is “C (C = 0-10% remaining)” and the DC50 was less than 25 nM. Besides, at GSPT1 (six hours), the DC50 is less than 25 nM and the “GSPT1 Ymin” value is listed as “E (E = >25-75% remaining)”.
As for `COc1cc(-c2nc(-c3ccc4c(c3)CN(C3CCC(=O)NC3=O)C4=O)cn2C)ccc1F` (centres unmarked) [Example 583], at CK1α (six hours), the “CK1α Ymin” value was “C (C = 0-10% remaining)” and the DC50 was less than 25 nM. For the same molecule, on GSPT1 (six hours), the DC50 was less than 25 nM and the “GSPT1 Ymin” value is listed as “F (F = >75-100% remaining)”.
Consider `Cn1cnc(-c2ccc3c(c2)CN(C2CCC(=O)NC2=O)C3=O)c1-c1cc2ccccc2[nH]1` (centres unmarked) [Example 527], for which, at CK1α (six hours), the “CK1α Ymin” value is listed as “D (D = >10- 25% remaining)” and the DC50 is less than 25 nM. On GSPT1 (six hours), the DC50 was less than 25 nM and the “GSPT1 Ymin” value was “E (E = >25-75% remaining)”.
On to `COc1ccc(-c2c(-c3ccc4c(c3)CN(C3CCC(=O)NC3=O)C4=O)ncn2C)c(Cl)c1` (centres unmarked) [Example 273], for which, on CK1α (six hours incubation), the “CK1α Ymin” value was “C (C = 0-10% remaining)” and the DC50 was less than 25 nM. Also, at GSPT1 (six hours incubation), the half-maximal degradation concentration (DC50) was less than 25 nM and the “GSPT1 Ymin” value is listed as “E (E = >25-75% remaining)”.
As for `Cn1ncc(-c2ccc3c(c2)CN(C2CCC(=O)NC2=O)C3=O)c1-c1ccc(C2CCNCC2)cc1` (centres unmarked) [Example 413], at CK1α (six hours), the “CK1α Ymin” value was “E (E = >25-75% remaining)” and the DC50 is not below 25 nM. Further, on GSPT1 (six hours), the DC50 was not below 25 nM and the “GSPT1 Ymin” value was “F (F = >75-100% remaining)”.
Take `COc1cccc(-c2c(-c3ccc4c(c3)CN(C3CCC(=O)NC3=O)C4=O)ncn2C)c1F` (centres unmarked) [Example 190]: at CK1α (six hours incubation), the “CK1α Ymin” value was “E (E = >25-75% remaining)” and the DC50 was less than 25 nM. Besides, on GSPT1 (six hours incubation), the DC50 was less than 25 nM and the “GSPT1 Ymin” value is given as “E (E = >25-75% remaining)”.
For `Cn1cnc(-c2ccc3c(c2)CN(C2CCC(=O)NC2=O)C3=O)c1-c1ccsc1Cl` (centres unmarked) [Example 348], on CK1α (six hours incubation), the “CK1α Ymin” value is listed as “E (E = >25-75% remaining)” and the DC50 is less than 25 nM. Moreover, at GSPT1 (six hours incubation), the DC50 is not below 25 nM and the “GSPT1 Ymin” value is on record as “F (F = >75-100% remaining)”.
On the same counts, the results for `Cn1cnc(-c2ccc3c(c2)CN(C2CCC(=O)NC2=O)C3=O)c1-c1ccc(F)cc1F` (centres unmarked) [Example 176] are “D (D = >10- 25% remaining)”, less than 25 nM, less than 25 nM and “E (E = >25-75% remaining)”.
As for `Cn1cnc(-c2ccc3c(c2)CN(C2CCC(=O)NC2=O)C3=O)c1-c1c[nH]c2ccccc12` (centres unmarked) [Example 509], at CK1α (six hours), the “CK1α Ymin” value is recorded as “D (D = >10- 25% remaining)” and the DC50 is less than 25 nM. At GSPT1 (six hours), the DC50 is less than 25 nM and the “GSPT1 Ymin” value is “E (E = >25-75% remaining)”.
Regarding `Cn1nc(-c2ccc3c(c2)CN(C2CCC(=O)NC2=O)C3=O)nc1C1CCC(C)(C)CC1` (centres unmarked) [Example 605, 3-(5-(5-(4,4-dimethylcyclohexyl)-1-methyl-1H-1,2,4-triazol-3-yl)-1-oxoisoindolin-2-yl)piperidine-2,6-dione], at CK1α (six hours), the “CK1α Ymin” value was “E (E = >25-75% remaining)” and the DC50 was less than 25 nM. Further, on GSPT1 (six hours), the 50% degradation concentration (DC50) is not below 25 nM and the “GSPT1 Ymin” value is “F (F = >75-100% remaining)”.
Consider `Cn1cnc(-c2ccc3c(c2)CN(C2CCC(=O)NC2=O)C3=O)c1-c1cccc(C(F)F)c1` (centres unmarked) [Example 202], for which, on CK1α (six hours incubation), the “CK1α Ymin” value is listed as “D (D = >10- 25% remaining)” and the DC50 was less than 25 nM. Moreover, at GSPT1 (six hours incubation), the DC50 is not below 25 nM and the “GSPT1 Ymin” value is reported as “F (F = >75-100% remaining)”.
Turning to `Cn1cnc(-c2ccc3c(c2)CN(C2CCC(=O)NC2=O)C3=O)c1C1=CCCCC1` (centres unmarked) [Example 595], on CK1α (six hours), the “CK1α Ymin” value is on record as “D (D = >10- 25% remaining)” and the DC50 was less than 25 nM. Also, at GSPT1 (six hours), the DC50 was not below 25 nM and the “GSPT1 Ymin” value is given as “F (F = >75-100% remaining)”.
On to `COc1cncc(-c2c(-c3ccc4c(c3)CN(C3CCC(=O)NC3=O)C4=O)ncn2C)c1` (centres unmarked) [Example 486], for which, on CK1α (six hours), the “CK1α Ymin” value was “D (D = >10- 25% remaining)” and the DC50 is less than 25 nM. For the same molecule, at GSPT1 (six hours), the DC50 is less than 25 nM and the “GSPT1 Ymin” value is “F (F = >75-100% remaining)”.
As to `Cn1cnc(-c2ccc3c(c2)CN(C2CCC(=O)NC2=O)C3=O)c1-c1cccc(-c2cccnc2)c1` (centres unmarked) [Example 352], on CK1α (six hours incubation), the “CK1α Ymin” value is “C (C = 0-10% remaining)” and the DC50 is less than 25 nM. Further, on GSPT1 (six hours incubation), the DC50 was not below 25 nM and the “GSPT1 Ymin” value is “F (F = >75-100% remaining)”.
For `CC(C)c1ccccc1-c1c(-c2ccc3c(c2)CN(C2CCC(=O)NC2=O)C3=O)cnn1C` (centres unmarked) [Example 60], at CK1α (six hours incubation), the “CK1α Ymin” value is on record as “E (E = >25-75% remaining)” and the DC50 is less than 25 nM. In addition, on GSPT1 (six hours incubation), the DC50 is not below 25 nM and the “GSPT1 Ymin” value is listed as “F (F = >75-100% remaining)”.
On to `Cn1cnc(-c2ccc3c(c2)CN(C2CCC(=O)NC2=O)C3=O)c1-c1ccc2ncn(C)c2c1` (centres unmarked) [Example 500], for which, at CK1α (six hours), the “CK1α Ymin” value was “C (C = 0-10% remaining)” and the DC50 is less than 25 nM. Besides, at GSPT1 (six hours), the DC50 was not below 25 nM and the “GSPT1 Ymin” value is listed as “F (F = >75-100% remaining)”.
Regarding `COc1ccc2cc(-c3c(-c4ccc5c(c4)CN(C4CCC(=O)NC4=O)C5=O)ncn3C)ccc2c1` (centres unmarked) [Example 446], on CK1α (six hours), the “CK1α Ymin” value is recorded as “D (D = >10- 25% remaining)” and the DC50 is less than 25 nM. At GSPT1 (six hours), the DC50 was less than 25 nM and the “GSPT1 Ymin” value is “F (F = >75-100% remaining)”.
Take `Cc1ccc(F)c(-c2c(-c3ccc4c(c3)CN(C3CCC(=O)NC3=O)C4=O)ncn2C)c1` (centres unmarked) [Example 170]: at CK1α (six hours incubation), the “CK1α Ymin” value was “D (D = >10- 25% remaining)” and the DC50 was less than 25 nM. Also, at GSPT1 (six hours incubation), the DC50 was not below 25 nM and the “GSPT1 Ymin” value is “F (F = >75-100% remaining)”.

The record behind these values is patent publication US20240158370A1, “CK1 alpha AND DUAL CK1 alpha / GSPT1 DEGRADING COMPOUNDS” (Innovo Therapeutics, Inc., priority 2022, published 2024).
